Several values for one entry are separate records, joined by “and”; a condition that tells them apart may be missing. Equal values may be shown once. Inconclusive results and toxic doses are left out. Rule for the calls: active = survival T/C of 150% or more; inactive = T/C below 125% in these data.
Test system: P388 leukemia ip, CD2F1 mice, survival T/C
Experiment: NCI In Vivo Anticancer Drug Screen. Data for tumor model P388 Leukemia (intraperitoneal) in CD2F1 (CDF1) mice
Conditions: endpoint: median survival time, higher = longer survival
Method in brief: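 Mice carrying the transplanted tumor received test compound or vehicle. Survival was recorded in each group, and the value is the treated-group measurement divided by that of the vehicle-treated control group.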

[1] = dose: 100.0 mg/kg/injection, schedule: Q01DX009 (ip), vehicle: saline
[2] = dose: 200.0 mg/kg/injection, schedule: Q01DX009 (ip), vehicle: saline
[3] = dose: 50.0 mg/kg/injection, schedule: Q01DX009 (ip), vehicle: saline
[4] = dose: 60.0 mg/kg/injection, schedule: Q01DX005 (ip), vehicle: saline with Tween-80
[5] = dose: 120.0 mg/kg/injection, schedule: Q01DX005 (ip), vehicle: saline with Tween-80
[6] = dose: 240.0 mg/kg/injection, schedule: Q01DX005 (ip), vehicle: saline with Tween-80
[7] = dose: 50.0 mg/kg/injection, schedule: Q01DX009 (ip), vehicle: saline with Tween-80
[8] = dose: 12.5 mg/kg/injection, schedule: Q04DX002 (ip), vehicle: saline with Tween-80
[9] = dose: 25.0 mg/kg/injection, schedule: Q04DX002 (ip), vehicle: saline with Tween-80
[10] = dose: 50.0 mg/kg/injection, schedule: Q01DX005 (ip), vehicle: saline with Tween-80
[11] = dose: 100.0 mg/kg/injection, schedule: Q01DX005 (ip), vehicle: saline with Tween-80
[12] = dose: 200.0 mg/kg/injection, schedule: Q01DX005 (ip), vehicle: saline with Tween-80
[13] = dose: 25.0 mg/kg/injection, schedule: Q01DX005 (ip), vehicle: Klucel (hydroxypropylcellulose) (HPC)
[14] = dose: 200.0 mg/kg/injection, schedule: Q01DX005 (ip), vehicle: Klucel (hydroxypropylcellulose) (HPC)
[15] = dose: 50.0 mg/kg/injection, schedule: Q01DX005 (ip), vehicle: saline
[16] = dose: 100.0 mg/kg/injection, schedule: Q01DX005 (ip), vehicle: saline
[17] = dose: 100.0 mg/kg/injection, schedule: Q04DX003 (ip), vehicle: saline
[18] = dose: 200.0 mg/kg/injection, schedule: Q04DX003 (ip), vehicle: saline

Measured: T/C

CCCC(C(=O)OC(C)CN1C(C)CCC1C)C1CCCC1 (stereo not drawn)
inactive: [1] 112 % of control | [2] 103 % of control | dose: 400.0 mg/kg/injection, schedule: Q01DX009 (ip), vehicle: saline 108 % of control

COc1cccc(CSCC(=O)O)c1
inactive: [3] 97 % of control | [1] 102 % of control | [2] 92 % of control

CN(C)C1C(O)C2Oc3c(cc(O)c4c3C(=O)c3cc5c(c(O)c3C4=O)C(N=[N+]=N)CC(C)(O)C5)C(C)(O2)C1O (stereo not drawn)
inactive: dose: 0.31 mg/kg/injection, schedule: Q01DX009 (ip), vehicle: other 107 % of control | dose: 0.62 mg/kg/injection, schedule: Q01DX009 (ip), vehicle: other 107 % of control | dose: 1.25 mg/kg/injection, schedule: Q01DX009 (ip), vehicle: other 108 % of control | dose: 10.0 mg/kg/injection, schedule: Q01DX009 (ip), vehicle: other 120 % of control

COc1c(C)c(=O)n2c3ccccc3n(C)c2c1C#N
inactive: [4] 103 % of control | [5] 107 % of control | [6] 99 % of control

c1ccc2[nH]ncc2c1
inactive: [7] 96 % of control | dose: 100.0 mg/kg/injection, schedule: Q01DX009 (ip), vehicle: saline with Tween-80 102 % of control | dose: 200.0 mg/kg/injection, schedule: Q01DX009 (ip), vehicle: saline with Tween-80 100 % of control

COc1ccc2c(c1)CC[C@@H]1[C@@H]2CC[C@]2(C)[C@@H](OCCOS(=O)(=O)c3ccc(C)cc3)CC[C@@H]12
inactive: dose: 100.0 mg/kg/injection, schedule: Q01DX001 (ip), vehicle: saline with Tween-80 99 % of control | dose: 200.0 mg/kg/injection, schedule: Q01DX001 (ip), vehicle: saline with Tween-80 101 % of control | dose: 400.0 mg/kg/injection, schedule: Q01DX001 (ip), vehicle: saline with Tween-80 101 % of control

O=C1C=CC(=O)C(CC2CCCC2C2=CC(=O)C=CC2=O)=C1 (stereo not drawn)
inactive: dose: 6.25 mg/kg/injection, schedule: Q04DX002 (ip), vehicle: saline with Tween-80 109 % of control | [8] 101 % of control | [9] 99 % of control and 109 % of control

CSC(=S)/N=c1\ccc(C)cn1C
inactive: [8] 100 % of control | [9] 100 % of control | dose: 50.0 mg/kg/injection, schedule: Q04DX002 (ip), vehicle: saline with Tween-80 99 % of control

CCOc1cc2c(cc1Cc1ccc3c(c1)OCO3)OCO2
inactive: [10] 97 % of control | [11] 107 % of control | [12] 107 % of control

COC(=O)C1CSC2(CCCN(Cc3ccccc3)C2)N1 (stereo not drawn)
inactive: [3] 105 % of control | [1] 122 % of control | [2] 109 % of control

COc1ccc(/C=C/C(=O)c2ccccc(=O)c2O)cc1OC
inactive: [13] 99 % of control | dose: 50.0 mg/kg/injection, schedule: Q01DX005 (ip), vehicle: Klucel (hydroxypropylcellulose) (HPC) 100 % of control | dose: 100.0 mg/kg/injection, schedule: Q01DX005 (ip), vehicle: Klucel (hydroxypropylcellulose) (HPC) 114 % of control | [14] 113 % of control

CCCCOC(=O)C(C)OC(=O)Nc1cccc(Cl)c1 (stereo not drawn)
inactive: dose: 100.0 mg/kg/injection, schedule: Q04DX003 (ip), vehicle: saline with Tween-80 90 % of control | dose: 200.0 mg/kg/injection, schedule: Q04DX003 (ip), vehicle: saline with Tween-80 90 % of control | dose: 400.0 mg/kg/injection, schedule: Q04DX003 (ip), vehicle: saline with Tween-80 100 % of control

C[n+]1c(-c2cccc(OCCCCCCCOc3cccc(-c4c5cc(N)ccc5c5ccc(N)cc5[n+]4C)c3)c2)c2cc(N)ccc2c2ccc(N)cc21
inactive: dose: 0.05 mg/kg/injection, schedule: Q01DX009 (ip), vehicle: water 123 % of control | dose: 25.0 micrograms/kg/injection, schedule: Q01DX009 (ip), vehicle: water 103 % of control | dose: 50.0 micrograms/kg/injection, schedule: Q01DX009 (ip), vehicle: water 118 % of control | dose: 100.0 micrograms/kg/injection, schedule: Q01DX009 (ip), vehicle: water 120 % of control | dose: 200.0 micrograms/kg/injection, schedule: Q01DX009 (ip), vehicle: water 100 % of control

COc1cc(/C=N\N=c2\sc3ccccc3n2C)ccc1OCCO
inactive: [4] 92 % of control | [5] 91 % of control | [6] 91 % of control

CCn1c2ccccc2c2cc(NC(N)=S)ccc21
inactive: dose: 12.5 mg/kg/injection, schedule: Q01DX005 (ip), vehicle: saline with Tween-80 100 % of control | dose: 25.0 mg/kg/injection, schedule: Q01DX005 (ip), vehicle: saline with Tween-80 102 % of control | [10] 100 % of control and 98 % of control

COC(=O)NC1CC(C2CO2)OC1=O (stereo not drawn)
inactive: [15] 101 % of control | [16] 99 % of control | dose: 200.0 mg/kg/injection, schedule: Q01DX005 (ip), vehicle: saline 109 % of control

CCC1(c2ccnc3ccccc23)C(=O)OC(C)(C)OC1=O
inactive: dose: 50.0 mg/kg/injection, schedule: Q01DX009 (ip), vehicle: distilled water + alcohol 99 % of control | dose: 100.0 mg/kg/injection, schedule: Q01DX009 (ip), vehicle: distilled water + alcohol 98 % of control | dose: 200.0 mg/kg/injection, schedule: Q01DX009 (ip), vehicle: distilled water + alcohol 87 % of control

NNC(=O)C1CCCC1
inactive: dose: 6.25 mg/kg/injection, schedule: Q01DX009 (ip), vehicle: saline with Tween-80 113 % of control | dose: 12.5 mg/kg/injection, schedule: Q01DX009 (ip), vehicle: saline with Tween-80 104 % of control | dose: 25.0 mg/kg/injection, schedule: Q01DX009 (ip), vehicle: saline with Tween-80 100 % of control | [7] 113 % of control

Cc1cc2c(cc1C)Nc1oc3ccc4ccccc4c3c(=O)c1C=N2
inactive: dose: 6.25 mg/kg/injection, schedule: Q01DX005 (ip), vehicle: Klucel (hydroxypropylcellulose) (HPC) 104 % of control | dose: 12.5 mg/kg/injection, schedule: Q01DX005 (ip), vehicle: Klucel (hydroxypropylcellulose) (HPC) 99 % of control | [13] 96 % of control | [14] 89 % of control

O=[N+]([O-])c1ccc([Se]c2ncccn2)c([N+](=O)[O-])c1
inactive: dose: 25.0 mg/kg/injection, schedule: Q04DX003 (ip), vehicle: saline 104 % of control | dose: 50.0 mg/kg/injection, schedule: Q04DX003 (ip), vehicle: saline 104 % of control | [17] 100 % of control and 117 % of control | [18] 100 % of control

CC(=O)Nc1ccsc1
inactive: dose: 25.0 mg/kg/injection, schedule: Q01DX005 (ip), vehicle: saline 102 % of control | [15] 104 % of control | [16] 109 % of control

COC(=O)N1CCCc2cc3c(cc(OC)c(OC)c3c3[nH]c4ccccc4c23)CC1
inactive: dose: 50.0 mg/kg/injection, schedule: Q01DX005 (ip), vehicle: Klucel + Tween-80 100 % of control | dose: 100.0 mg/kg/injection, schedule: Q01DX005 (ip), vehicle: Klucel + Tween-80 95 % of control | dose: 200.0 mg/kg/injection, schedule: Q01DX005 (ip), vehicle: Klucel + Tween-80 91 % of control

C=CC(=O)OCCOCN(COCCOC(=O)C=C)c1nc(N(COCCOC(=O)C=C)COCCOC(=O)C=C)nc(N(COCCOC(=O)C=C)COCCOC(=O)C=C)n1
inactive: [10] 99 % of control | [11] 107 % of control

OCC1OC(c2ccc(O)cc2O)C(O)C1O (stereo not drawn)
inactive: [3] 102 % of control | [1] 96 % of control | [17] 95 % of control | [2] 105 % of control | [18] 98 % of control | dose: 400.0 mg/kg/injection, schedule: Q04DX003 (ip), vehicle: saline 95 % of control

CCOC(=O)NN(C(=O)OCC)C(C(=O)C1CCCCC1)N(NC(=O)OCC)C(=O)OCC
inactive: dose: 50.0 mg/kg/injection, schedule: Q01DX009 (ip), vehicle: Klucel (hydroxypropylcellulose) (HPC) 102 % of control | dose: 100.0 mg/kg/injection, schedule: Q01DX009 (ip), vehicle: Klucel (hydroxypropylcellulose) (HPC) 100 % of control | dose: 200.0 mg/kg/injection, schedule: Q01DX009 (ip), vehicle: Klucel (hydroxypropylcellulose) (HPC) 96 % of control

CCCCCCCN(CCCCCCC)CC(O)c1ccc2cc(Cl)c3ccccc3c2c1 (stereo not drawn)
inactive: [10] 107 % of control | [11] 112 % of control | [12] 105 % of control

N#CN1C2CCC1CC(O)(c1ccccc1)C2 (stereo not drawn)
inactive: [10] 104 % of control and 99 % of control | [11] 102 % of control | [12] 103 % of control

c1ccc(-c2nc3cccnc3s2)cc1
inactive: [4] 101 % of control | [5] 101 % of control | [6] 104 % of control
